The source of these data is patent US10300051B2, “Cyclopropylamines as LSD1 inhibitors” (priority 2014, dated 2019).

This experiment concerns the target LSD-1 enzyme (Homo sapiens (Human), UniProt O60341). The class given is biochemical. To be noted: 1 nM LSD-1 enzyme, 1 hour preincubation at 25° C., Biotin-labeled Histone H3 peptide substrate. The protocol: Example A: LSD1 Histone Demethylase Biochemical Assay
LANCE LSD1/KDM1A demethylase assay—10 μL of 1 nM LSD-1 enzyme (ENZO BML-SE544-0050) in the assay buffer (50 mM Tris, pH 7.5, 0.01% Tween-20, 25 mM NaCl, 5 mM DTT) were preincubated for 1 hour at 25° C. with 0.8 μL compound/DMSO dotted in black 384 well polystyrene plates. […] Reactions were stopped by addition of 10 μL 1× LANCE Detection Buffer (PerkinElmer CR97-100) supplemented with 1.5 nM Eu-anti-unmodified H3K4 Antibody (PerkinElmer TRF0404), and 225 nM LANCE Ultra Streptavidin (PerkinElmer TRF102) along with 0.9 mM Tranylcypromine-HCl (Millipore 616431). After stopping the reactions plates were incubated for 30 minutes and read on a PHERAstar FS plate reader (BMG Labtech).

Regarding `O=C(O)CCN1CCC(CN[C@@H]2C[C@H]2c2ccccc2)(COc2ncc(F)cn2)CC1` [Example 46, 3-[4-{[(5-fluoropyrimidin-2-yl)oxy]methyl}-4-({[(1R,2S)-2-phenylcyclopropyl]amino}methyl)piperidin-1-yl]propanoic Acid], the IC50 was under 100 nM.

The compound `CC(C)N1CCC(CN[C@@H]2C[C@H]2c2ccccc2)(Cc2cccc(C(=O)O)c2)CC1` [Example 34, 3-{[1-isopropyl-4-({[(1R,2S)-2-phenylcyclopropyl]amino}methyl)piperidin-4-yl]methyl}benzoic Acid] returned an IC50 of under 100 nM.

For `COc1ccc(CC2(CN[C@@H]3C[C@H]3c3ccccc3)CCN(CCC(=O)O)CC2)cn1` [Example 50, 3-[4-[(6-methoxypyridin-3-yl)methyl]-4-({[(1R,2S)-2-phenylcyclopropyl]amino}methyl)piperidin-1-yl]propanoic Acid], the IC50 was under 100 nM.

`O=C(O)c1cccc(CC2(CN[C@@H]3C[C@H]3c3ccccc3)CCN(CC3CC3)CC2)c1` [Example 30, 3-{[1-(cyclopropylmethyl)-4-({[(1R,2S)-2-phenylcyclopropyl]amino}methyl)piperidin-4-yl]methyl}benzoic Acid] came in with an IC50 of under 100 nM.

Compound `N#Cc1ccc(CC2(CN[C@@H]3C[C@H]3c3ccccc3)CCN(CCC(=O)O)CC2)c(F)c1` [Example 42, 3-[4-(4-cyano-2-fluorobenzyl)-4-({[(1R,2S)-2-phenylcyclopropyl]amino}methyl)piperidin-1-yl]propanoic Acid] gave an IC50 of under 100 nM.

`CN(C)CC(=O)N1CCC(CN[C@@H]2C[C@H]2c2ccccc2)(Cc2cccc(C(N)=O)c2)CC1` [Example 58, 3-{[1-[(dimethylamino)acetyl]-4-({[(1R,2S)-2-phenylcyclopropyl]amino}methyl)piperidin-4-yl]methyl}benzamide] yielded an IC50 of under 100 nM.

`CN1CCC(CC#N)(CN[C@@H]2C[C@H]2c2ccccc2)CC1` (relative stereo) [Example 5, (1-Methyl-4-{[(trans-2-phenylcyclopropyl)amino]methyl}piperidin-4-yl)acetonitrile] gave an IC50 of under 100 nM.

The compound `COCC1(CN[C@@H]2C[C@H]2c2ccccc2)CCN(C(=O)CN2CCOCC2)CC1` [Example 61, (1R,2S)—N-{[4-(methoxymethyl)-1-(morpholin-4-ylacetyl)piperidin-4-yl]methyl}-2-phenylcyclopropanamine] yielded an IC50 of under 100 nM.

Compound `O=C(O)c1cccc(CC2(CN[C@@H]3C[C@H]3c3ccccc3)CCN(Cc3ccccn3)CC2)c1` [Example 32, 3-{[4-({[(1R,2S)-2-phenylcyclopropyl]amino}methyl)-1-(pyridin-2-ylmethyl)piperidin-4-yl]methyl}benzoic Acid] registered an IC50 of under 100 nM.

For the compound `C[C@@H](N)C(=O)N1CCC(CN[C@@H]2C[C@H]2c2ccccc2)(Cc2ccc(F)cc2)CC1` [Example 15, (1R,2S)—N-{[1-[(2R)-2-aminopropanoyl]-4-(4-fluorobenzyl)piperidin-4-yl]methyl}-2-phenylcyclopropanamine], the IC50 is under 100 nM.

In turn, `C[C@H](N)C(=O)N1CCC(CN[C@@H]2C[C@H]2c2ccccc2)(Cc2ccc(F)cc2)CC1` [Example 14, (1R,2S)—N-{[1-[(2S)-2-aminopropanoyl]-4-(4-fluorobenzyl)piperidin-4-yl]methyl}-2-phenylcyclopropanamine] displayed a half-maximal inhibitory concentration (IC50) of under 100 nM.

Compound `COCC1(CN[C@@H]2C[C@H]2c2ccccc2)CCN(CCC(=O)N(C)C)CC1` [Example 23, 3-[4-(methoxymethyl)-4-({[(1R,2S)-2-phenylcyclopropyl]amino}methyl)piperidin-1-yl]-N,N-dimethylpropanamide] showed an IC50 of under 100 nM.

The compound `O=C(O)CCN1CCC(CN[C@@H]2C[C@H]2c2ccccc2)(Cc2ccc(F)cn2)CC1` [Example 54, 3-[4-[(5-fluoropyridin-2-yl)methyl]-4-({[(1R,2S)-2-phenylcyclopropyl]amino}methyl)piperidin-1-yl]propanoic Acid] returned an IC50 of under 100 nM.

The compound `O=C(O)CCN1CCC(CN[C@@H]2C[C@H]2c2ccccc2)(Cc2cccc(OC3CCOCC3)c2)CC1` [Example 36, 3-{4-({[(1R,2S)-2-phenylcyclopropyl]amino}methyl)-4-[3-(tetrahydro-2H-pyran-4-yloxy)benzyl]piperidin-1-yl}propanoic Acid] returned an IC50 of under 100 nM.

`COc1cccc(CC2(CN[C@@H]3C[C@H]3c3ccccc3)CCN(CCC(=O)O)CC2)c1` [Example 59, 3-[4-(3-methoxybenzyl)-4-({[(1R,2S)-2-phenylcyclopropyl]amino}methyl)piperidin-1-yl]propanoic Acid] displayed an IC50 of under 100 nM.

For the compound `CCOc1cccc(CC2(CN[C@@H]3C[C@H]3c3ccccc3)CCN(CCC(=O)O)CC2)c1` [Example 60, 3-[4-(3-ethoxybenzyl)-4-({[(1R,2S)-2-phenylcyclopropyl]amino}methyl)piperidin-1-yl]propanoic Acid], the IC50 was under 100 nM.

Compound `COc1ccc(CC2(CN[C@@H]3C[C@H]3c3ccccc3)CCN(CCC(=O)O)CC2)cc1` [Example 55, 3-[4-(4-methoxybenzyl)-4-({[(1R,2S)-2-phenylcyclopropyl]amino}methyl)piperidin-1-yl]propanoic Acid] returned an IC50 of under 100 nM.

The compound `O=C(O)CCN1CCC(CN[C@@H]2C[C@H]2c2ccccc2)(COCC2CCC2)CC1` [Example 52, 3-[4-[(cyclobutylmethoxy)methyl]-4-({[(1R,2S)-2-phenylcyclopropyl]amino}methyl)piperidin-1-yl]propanoic Acid] showed an IC50 of under 100 nM.

In turn, `O=C(O)CCN1CCC(CN[C@@H]2C[C@H]2c2ccccc2)(Cc2cccc(F)c2)CC1` [Example 17, 3-[4-(3-fluorobenzyl)-4-({[(1R,2S)-2-phenylcyclopropyl]amino}methyl)piperidin-1-yl]propanoic Acid] returned an IC50 of under 100 nM.

With `O=C(O)CCN1CCC(CN[C@@H]2C[C@H]2c2ccccc2)(Cc2ccc(F)c(F)c2)CC1` [Example 20, 3-[4-(3,4-difluorobenzyl)-4-({[(1R,2S)-2-phenylcyclopropyl]amino}methyl)piperidin-1-yl]propanoic Acid], the IC50 is under 100 nM.

In the case of `CS(=O)(=O)N1CCC(CC#N)(CN[C@@H]2C[C@H]2c2ccccc2)CC1` (relative stereo) [Example 4, (1-(Methylsulfonyl)-4-{[(trans-2-phenylcyclopropyl)amino]methyl}piperidin-4-yl)acetonitrile], the IC50 is under 100 nM.

For the compound `Cn1cc(-c2cccc(CC3(CN[C@@H]4C[C@H]4c4ccccc4)CCN(CCC(=O)O)CC3)c2)cn1` [Example 27, 3-[4-[3-(1-methyl-1H-pyrazol-4-yl)benzyl]-4-({[(1R,2S)-2-phenylcyclopropyl]amino}methyl)piperidin-1-yl]propanoic Acid], the IC50 is under 100 nM.

Regarding `O=C(O)CCN1CCC(CN[C@@H]2C[C@H]2c2ccccc2)(Cc2cccc(O[C@@H]3CCOC3)c2)CC1` [Example 35, 3-(4-({[(1R,2S)-2-phenylcyclopropyl]amino}methyl)-4-{3-[(3R)-tetrahydrofuran-3-yloxy]benzyl}piperidin-1-yl)propanoic Acid], the IC50 was under 100 nM.

As for `O=C(O)c1cccc(CC2(CN[C@@H]3C[C@H]3c3ccccc3)CCN(Cc3cccnc3)CC2)c1` [Example 33, 3-{[4-({[(1R,2S)-2-phenylcyclopropyl]amino}methyl)-1-(pyridin-3-ylmethyl)piperidin-4-yl]methyl}benzoic Acid], the IC50 is under 100 nM.

For orientation: IC50 means the concentration needed to halve the response being measured. High values mean weaker potency in that assay, low ones greater potency in that assay.
